Data from US20230372374A1, “VETERINARY PHARMACEUTICAL FORMULATIONS” (INCREVET, INC., priority 2022, published 2023).
Converted amounts (≈) assume the structure as drawn.

How the values were obtained:
[1] = Solubility of bexagliflozin in aqueous media; assay type: physicochemical; conditions: aqueous media at 37° C.
[2] = Pharmacokinetics in cats after capsule dosing; assay type: in vivo, cat
Description: Capsules were evaluated using cohorts of four laboratory cats that were administered test article at multiple dose levels. The test article was prepared in size 4 gelatin capsules and administered by mouth to animals that had been fasted 12 h. The capsules were loaded with 5% bexagliflozin (w/w) in microcrystalline cellulose for the 0.1, 0.3 and 1.0 mg kg^−1 dose levels, and with bexagliflozin alone for the 3.0 and 10.0 mg kg^−1 dose levels. The cats were provided with food ad libitum 2 hours after dosing.
Blood samples were collected from the acral vein at the scheduled time points. Samples of 0.1 to 0.3 mL were drawn into 1.5 mL tubes containing dipotassium EDTA as an anticoagulant. The samples were immediately mixed by gently inverting the tube approximately 8 times. Immediately following mixing, the tubes were placed on crushed ice and kept chilled until centrifugation. Samples were centrifuged within 1 hour of collection. Following centrifugation, the tubes were returned to crushed ice and supernatants transferred into microcentrifuge tubes and frozen. The tubes were stored frozen in a −20° C. freezer at the testing facility prior to shipment for analysis. Plasma bexagliflozin concentration was measured by an LC-MS/MS method. Separations were performed using an Agilent 1200 equipped with a Thermo Betasil C18 50×2.1 mm, 5 μm packing column or a Phenomenex Gemini C18 50×4.5 mm, 5 μm packing column. Analyte detection was performed with an ABI 4000 or AB Sciex QTRAP 5500 mass spectrometer.
The volume of distribution was relatively large, ranging from 5.5 to 11.9 L kg^−1, with no dose-dependent trend. […] The majority of the variation in half-life was attributable to variation in the volume of distribution, and the clearance was relatively constant at 1.46±0.24 L h^−1 kg^−1. The AUC0-24 was proportional to dose over the entire dosing range and a linear regression with a constrained intercept of 0 ng h mL^−1 at 0 mg kg^−1 gave a slope of 762 ng h mL^−1 per mg kg^−1 of dose (FIG. 2).

renal glucose reuptake [3] = test: Urinary glucose excretion in cats after tablet dosing; assay type: in vivo, cat; conditions: healthy cats, tablets, corrected for assay
Description: A dose range-finding study was conducted with tablets prepared using a polacrilex resin slurry process. For the evaluation of pharmacodynamics, animals were fed canned food, to promote a constant daily urine volume and proper collection of urine samples. Water was supplied ad libitum.
All animals were administered test article at each dose level. The 2.5 mg dose was delivered as half of one 5 mg tablet cleaved with a pill cutter. The 5 mg dose was delivered as one 5 mg tablet per cat, the 10 mg dose was delivered as one 10 mg tablet per cat and the 30 mg dose was delivered as two 15 mg tablets per cat. For the pharmacokinetics study, test articles were dosed after the sampling of blood at pre-dose (0 h) time point. For the pharmacodynamics study, test articles were administered daily at 9:00-9:30 for four consecutive days and urine excreted by the animals for the last three days (after the dose and before next dose) was collected.
Collections were performed for three days to diminish the consequences of day-to-day variation of urine excretion. […] For convenience in referring to dose levels, the nominal dosages are used in this report, but calculations of dose-response relationships in mg kg^−1 were based on the measured bexagliflozin content.
The pharmacodynamics elicited by bexagliflozin delivered by tablets was also evaluated. […]

[4] = humans; cited from earlier work
renal glucose reuptake [5] = test: Urinary glucose excretion in cats after capsule dosing; assay type: in vivo, cat
Description: The pharmacodynamics of inhibitors of renal glucose reuptake can be easily monitored by measurement of urinary glucose excretion (UGE). The sodium-linked glucose transporters SGLT1 and SGLT2 are expressed in the second and first segments, respectively, (pars recta and pars convoluta) of the renal proximal tubule.
As described above, 4 laboratory cats were administered bexagliflozin as either a blend with microcrystalline cellulose or as pure bexagliflozin, in each case in gelatin capsules. Bexagliflozin induced a significant glucosuria in healthy cats. At 3 mg kg^−1, total urinary glucose excreted over a period of 24 hours was 4.78 g (Table 14). […] Glucosuria following test article administration in the fasted state was higher than glucosuria following administration in the fed state (Table 14, bottom row).

renal glucose reuptake [6] = test: Urinary glucose excretion in cats after DEGEE/glycerol liquid formulations; assay type: in vivo, cat; conditions: daily oral DEGEE/glycerol liquid formulations F16D-V1 to F16D
Description: The pharmacodynamics produced by liquid formulations of bexagliflozin were also evaluated. Cats were fed daily with Whiskas Cat Food in Can (Ocean Fish) and bexagliflozin was delivered orally daily with different formulations derived from F16D as shown in Table 15.
Cats were dosed with F16D-V0 (0.1 mL kg^−1) for two days (vehicle control), and urine samples were collected on the second day for glucose excretion analysis. Similarly, cats were dosed daily with F16D-V1 (0.1 mL kg^−1) from Day 1 to Day 4 at 0.1 mg kg^−1 dose, and urine samples were collected from Day 2 to Day 4 for glucose excretion analysis; cats were dosed daily with F16D-V2 (0.1 mL kg^−1) from Day 5 to Day 8 at 0.3 mg kg^−1 dose, and urine samples were collected from Day 6 to Day 8 for glucose excretion analysis; cats were dosed daily with F16D-V3 (0.1 mL kg^−1) from Day 9 to Day 12 at 1 mg kg^−1 dose, and urine samples collected from Day 10 to Day 12 for glucose excretion analysis; and cats were dosed daily with F16D (0.1 mL kg^−1) from Day 13 to Day 16 at 3 mg kg^−1 dose, and urine samples were collected from Day 14 to Day 16 for glucose excretion analysis.
Urine samples were analyzed using a HITACHI 7600-010 automatic biochemistry analyzer. Urine glucose and creatinine concentrations were measured. […]

OC[C@H]1O[C@@H](c2ccc(Cl)c(Cc3ccc(OCCOC4CC4)cc3)c2)[C@H](O)[C@@H](O)[C@@H]1O [Bexagliflozin, (2S,3R,4R,5S,6R)-2-(4-chloro-3-(4-(2-cyclopropoxyethoxy)benzyl)phenyl)-6-(hydroxymethyl)tetrahydro-2H-pyran-3,4,5-triol]
solubility [1]: ~500 µg/mL (≈ 1080 µM) | slope of AUC0-24 versus dose ([2]; cats, capsules, linear regression with constrained intercept of 0): 762 ng h mL^−1 per mg kg^−1 | Tmax ([2]; in vivo, po): 0.6 to 1.2 h | clearance ([2]; in vivo, po): 24.3 ± 4 mL/min/kg | half-life ([2]; in vivo, po): 2.9 to 5.9 h | volume of distribution ([2]; in vivo, po): 5.5 to 11.9 L/kg | ED50 for UGE (renal glucose reuptake [3]): 0.505 mg/kg | hazard ratio for the reduction in major adverse cardiovascular events [4]: 0.774 | total urinary glucose excreted over a period of 24 hours (renal glucose reuptake [5]; cats, capsule, 3 mg kg^−1): 4.78 g | ED50 of glucosuria (renal glucose reuptake [5]; healthy cats, capsules): 0.56 mg/kg | half-maximal dose (ED50) for daily glucose excretion (renal glucose reuptake [6]): 0.383 mg/kg/day | maximum daily glucose excretion (predicted) (renal glucose reuptake [6]; 0.1 to 3 mg kg^−1): 7854 mg
